Data taken from ChEMBL document CHEMBL1687791, “Identification and characterization of four azole-resistant erg3 mutants of Candida albicans” (2010).
Values after ≈ are worked out from the molar mass of the structure shown.

How the values were obtained:
Assay type in all cases: functional
[1] = system: Candida albicans; assay: Antifungal activity against Candida albicans isolate 12 harboring ERG3 W332R mutant gene by broth microdilution method
[2] = system: Candida albicans; assay: Antifungal activity against Candida albicans isolate 488 harboring ERG3 H243N, T330A, A351V and ERG11 D225G, E266D, E391G, V488I mutant genes by broth microdilution method
[3] = system: Candida albicans; assay: Antifungal activity against Candida albicans isolate 1008 harboring ERG3 K97E, L193P, V237A, A351V, A353T and ERG11 E266D mutant genes by broth microdilution method
[4] = system: Candida albicans; assay: Antifungal activity against Candida albicans isolate 14 by broth microdilution method
[5] = system: Candida albicans; assay: Antifungal activity against Candida albicans isolate 177 by broth dilution method
[6] = system: Candida albicans; assay: Antifungal activity against Candida albicans isolate 6 by broth microdilution method
[7] = system: Candida albicans; assay: Antifungal activity against Candida albicans isolate 490 harboring ERG3 D147G, T330A, A351V and ERG11 F72S, T229A, E266D, N440S, V488I, R523G mutant genes by broth microdilution method
[8] = system: Candida albicans; assay: Antifungal activity against Candida albicans isolate 14 assessed as ergosterol content in total sterol composition at 0.5 times MIC by GC-MS analysis
[9] = system: Candida albicans; assay: Antifungal activity against Candida albicans isolate 488 harboring ERG3 H243N, T330A, A351V and ERG11 D225G, E266D, E391G, V488I mutant genes assessed as lanosterol/obtusifoliol content in total sterol composition at 0.5 times MIC by GC-MS analysis
[10] = system: Candida albicans; assay: Antifungal activity against Candida albicans isolate 490 harboring ERG3 D147G, T330A, A351V and ERG11 F72S, T229A, E266D, N440S, V488I, R523G mutant genes assessed as 14alpha-methylergosta-8,24(28)-dien-3beta,6alpha-diol content in total sterol composition at 0.5 times MIC by GC-MS analysis
[11] = system: Candida albicans; assay: Antifungal activity against Candida albicans isolate 12 harboring ERG3 W332R mutant gene assessed as lanosterol/obtusifoliol content in total sterol composition at 0.5 times MIC by GC-MS analysis
[12] = system: Candida albicans; assay: Antifungal activity against Candida albicans isolate 488 harboring ERG3 H243N, T330A, A351V and ERG11 D225G, E266D, E391G, V488I mutant genes assessed as 14alpha-methyl fecosterol content in total sterol composition at 0.5 times MIC by GC-MS analysis
[13] = system: Candida albicans; assay: Antifungal activity against Candida albicans isolate 12 harboring ERG3 W332R mutant gene assessed as 14alpha-methyl fecosterol content in total sterol composition at 0.5 times MIC by GC-MS analysis
[14] = system: Candida albicans; assay: Antifungal activity against Candida albicans isolate 488 harboring ERG3 H243N, T330A, A351V and ERG11 D225G, E266D, E391G, V488I mutant genes assessed as 14alpha-methylergosta-8,24(28)-dien-3beta,6alpha-diol content in total sterol composition at 0.5 times MIC by GC-MS analysis
[15] = system: Candida albicans; assay: Antifungal activity against Candida albicans isolate 14 assessed as lanosterol/obtusifoliol content in total sterol composition at 0.5 times MIC by GC-MS analysis
[16] = system: Candida albicans; assay: Antifungal activity against Candida albicans isolate 490 harboring ERG3 D147G, T330A, A351V and ERG11 F72S, T229A, E266D, N440S, V488I, R523G mutant genes assessed as 14alpha-methyl fecosterol content in total sterol composition at 0.5 times MIC by GC-MS analysis
[17] = system: Candida albicans; assay: Antifungal activity against Candida albicans isolate 1008 harboring ERG3 K97E, L193P, V237A, A351V, A353T and ERG11 E266D mutant genes assessed as lanosterol/obtusifoliol content in total sterol composition at 0.5 times MIC by GC-MS analysis
[18] = system: Candida albicans; assay: Antifungal activity against Candida albicans isolate 177 assessed as 14alpha-methylergosta-8,24(28)-dien-3beta,6alpha-diol content in total sterol composition at 0.5 times MIC by GC-MS analysis
[19] = system: Candida albicans; assay: Antifungal activity against Candida albicans isolate 488 harboring ERG3 H243N, T330A, A351V and ERG11 D225G, E266D, E391G, V488I mutant genes by broth microdilution method in presence of 10 uM drug efflux inhibitor FK506
[20] = system: Candida albicans; assay: Antifungal activity against Candida albicans isolate 1008 harboring ERG3 K97E, L193P, V237A, A351V, A353T and ERG11 E266D mutant genes assessed as 14alpha-methyl fecosterol content in total sterol composition at 0.5 times MIC by GC-MS analysis
[21] = system: Candida albicans; assay: Antifungal activity against Candida albicans isolate 1008 harboring ERG3 K97E, L193P, V237A, A351V, A353T and ERG11 E266D mutant genes assessed as eburicol content in total sterol composition at 0.5 times MIC by GC-MS analysis
[22] = system: Candida albicans; assay: Antifungal activity against Candida albicans isolate 490 harboring ERG3 D147G, T330A, A351V and ERG11 F72S, T229A, E266D, N440S, V488I, R523G mutant genes assessed as ergosterol content in total sterol composition at 0.5 times MIC by GC-MS analysis
[23] = system: Candida albicans; assay: Antifungal activity against Candida albicans isolate 488 harboring ERG3 H243N, T330A, A351V and ERG11 D225G, E266D, E391G, V488I mutant genes assessed as ergosterol content in total sterol composition at 0.5 times MIC by GC-MS analysis
[24] = system: Candida albicans; assay: Antifungal activity against Candida albicans isolate 14 by broth microdilution method in presence of 10 uM drug efflux inhibitor FK506
[25] = system: Candida albicans; assay: Antifungal activity against Candida albicans isolate 1008 harboring ERG3 K97E, L193P, V237A, A351V, A353T and ERG11 E266D mutant genes by broth microdilution method in presence of 10 uM drug efflux inhibitor FK506
[26] = system: Candida albicans; assay: Antifungal activity against Candida albicans isolate 12 harboring ERG3 W332R mutant gene assessed as 14alpha-methylergosta-8,24(28)-dien-3beta,6alpha-diol content in total sterol composition at 0.5 times MIC by GC-MS analysis
[27] = system: Candida albicans; assay: Antifungal activity against Candida albicans isolate 177 assessed as lanosterol/obtusifoliol content in total sterol composition at 0.5 times MIC by GC-MS analysis
[28] = system: Candida albicans; assay: Antifungal activity against Candida albicans isolate 12 harboring ERG3 W332R mutant gene assessed as eburicol content in total sterol composition at 0.5 times MIC by GC-MS analysis
[29] = system: Candida albicans; assay: Antifungal activity against Candida albicans isolate 6 by broth microdilution method in presence of 10 uM drug efflux inhibitor FK506
[30] = system: Candida albicans; assay: Antifungal activity against Candida albicans isolate 177 assessed as ergosterol content in total sterol composition at 0.5 times MIC by GC-MS analysis
[31] = system: Candida albicans; assay: Antifungal activity against Candida albicans isolate 6 assessed as eburicol content in total sterol composition at 0.5 times MIC by GC-MS analysis
[32] = system: Candida albicans; assay: Antifungal activity against Candida albicans isolate 490 harboring ERG3 D147G, T330A, A351V and ERG11 F72S, T229A, E266D, N440S, V488I, R523G mutant genes assessed as lanosterol/obtusifoliol content in total sterol composition at 0.5 times MIC by GC-MS analysis
[33] = system: Candida albicans; assay: Antifungal activity against Candida albicans isolate 490 harboring ERG3 D147G, T330A, A351V and ERG11 F72S, T229A, E266D, N440S, V488I, R523G mutant genes by broth microdilution method in presence of 10 uM drug efflux inhibitor FK506
[34] = system: Candida albicans; assay: Antifungal activity against Candida albicans isolate 177 by broth dilution method in presence of 10 uM drug efflux inhibitor FK506
[35] = system: Candida albicans; assay: Antifungal activity against Candida albicans isolate 488 harboring ERG3 H243N, T330A, A351V and ERG11 D225G, E266D, E391G, V488I mutant genes assessed as eburicol content in total sterol composition at 0.5 times MIC by GC-MS analysis
[36] = system: Candida albicans; assay: Antifungal activity against Candida albicans isolate 12 harboring ERG3 W332R mutant gene assessed as ergosterol content in total sterol composition at 0.5 times MIC by GC-MS analysis
[37] = system: Candida albicans; assay: Antifungal activity against Candida albicans isolate 12 harboring ERG3 W332R mutant gene assessed as ergosta 7,22-dienol content in total sterol composition at 0.5 times MIC by GC-MS analysis
[38] = system: Candida albicans; assay: Antifungal activity against Candida albicans isolate 12 harboring ERG3 W332R mutant gene by broth microdilution method in presence of 10 uM drug efflux inhibitor FK506
[39] = system: Candida albicans; assay: Antifungal activity against Candida albicans isolate 177 assessed as eburicol content in total sterol composition at 0.5 times MIC by GC-MS analysis
[40] = system: Candida albicans; assay: Antifungal activity against Candida albicans isolate 177 assessed as 14alpha-methyl fecosterol content in total sterol composition at 0.5 times MIC by GC-MS analysis
[41] = system: Candida albicans; assay: Antifungal activity against Candida albicans isolate 6 assessed as ergosterol content in total sterol composition at 0.5 times MIC by GC-MS analysis

`C[C@@H]1[C@H](O)[C@@H](C)/C=C/C=C/C=C/C=C/C=C/C=C/C=C/[C@H](O[C@@H]2O[C@H](C)[C@@H](O)[C@H](N)[C@@H]2O)C[C@@H]2O[C@](O)(C[C@@H](O)C[C@@H](O)[C@H](O)CC[C@@H](O)C[C@@H](O)CC(=O)O[C@H]1C)C[C@H](O)[C@H]2C(=O)O` [AMPHOTERICIN B] was tested, and the MIC [1] was 0.5 mg/L (≈ 0.541 µM), the MIC [2] was 0.25 mg/L (≈ 0.271 µM) and the MIC [3] was 1 mg/L (≈ 1.08 µM). For the same molecule, the MIC [4] was 0.25 mg/L (≈ 0.271 µM), the MIC [5] was 0.25 mg/L (≈ 0.271 µM) and the MIC [6] was 0.25 mg/L (≈ 0.271 µM). It also gave an MIC [7] of 0.25 mg/L (≈ 0.271 µM).

`Clc1ccccc1C(c1ccccc1)(c1ccccc1)n1ccnc1` [CLOTRIMAZOLE] gave an MIC [1] of 1 mg/L (≈ 2.9 µM), an MIC [2] of 1 mg/L (≈ 2.9 µM) and an MIC [3] of 1 mg/L (≈ 2.9 µM). For the same molecule, the MIC [4] was 0.0625 mg/L (≈ 0.181 µM), the MIC [5] was 1 mg/L (≈ 2.9 µM) and the MIC [6] was 1 mg/L (≈ 2.9 µM). The MIC [7] was 1 mg/L (≈ 2.9 µM).

With `OC(Cn1cncn1)(Cn1cncn1)c1ccc(F)cc1F` [FLUCONAZOLE] the Activity [8] was 89.4%, the Activity [9] was 15.2% and the MIC [1] was > 256 mg/L. For the same molecule, the Activity [10] was 13.7%, the Activity [11] was 18.3% and the Activity [12] was 55.6%. It also gave an Activity [13] of 64.3%, an Activity [14] of 14.3% and an Activity [15] of 10.6%. The Activity [16] was 69.2%, the Activity [17] was 14.4% and the Activity [18] was 6.5%. For the same molecule, the MIC [19] was 2 mg/L, the Activity [20] was 74% and the Activity [21] was 9.8%. It also gave an Activity [22] of 3.5%, an Activity [23] of 7.2% and an MIC [24] of 1 mg/L. For the same molecule, the MIC [25] was > 256 mg/L, the Activity [26] was 1.6% and the Activity [27] was 10.6%. The Activity [28] was 11.6%, the MIC [29] was 1 mg/L and the Activity [30] was 76%. For the same molecule, the Activity [31] was 5.4%, the Activity [32] was 13.7% and the MIC [33] was 2 mg/L. For the same molecule, the MIC [2] was > 256 mg/L, the MIC [3] was > 256 mg/L and the MIC [34] was 0.5 mg/L. It also gave an MIC [4] of 1 mg/L (≈ 3.27 µM), an Activity [35] of 7.7% and an Activity [36] of 2.6%. The MIC [5] was 256 mg/L (≈ 836 µM), the Activity [37] was 1.7% and the MIC [38] was > 256 mg/L. The Activity [39] was 4.9%, the MIC [6] was 256 mg/L (≈ 836 µM) and the MIC [7] was > 256 mg/L. It also gave an Activity [40] of 2% and an Activity [41] of 74.5%.
